In ChEMBL document CHEMBL5729007, “Triaryl compounds for treatment of PD-L1 diseases” (2022):

The compounds below were run against Programmed cell death 1 ligand 1 (Homo sapiens, UniProt Q9NZQ7) (assay: Enzyme-Linked Immunosorbent Assay—ELISA: 96 Well plates were coated with […] of human PD-L1 (obtained from R&D) in PBS overnight at 4° C. The wells were then blocked with 2% BSA in PBS (W/V) with 0.05% TWEEN-20 for 1 hour at 37° C. The plates were washed 3 times with PBS/0.05% TWEEN-20 and the compounds were serial diluted (1:5) in dilution medium and added to the ELISA plates. Human PD-1 and biotin 0.31 μg/mL (ACRO Biosystems) were added and incubated for 1 hour at 37° C. then washed 3 times with PBS/0.05% TWEEN-20. A second block was performed with 2% BSA in PBS (W/V)/0.05% TWEEN-20 for 10 min at 37° C. and the plates were washed 3 times with PBS/0.05% TWEEN-20. Streptavidin-HRP was added for 1 hour at 37° C. then the plates were washed 3 times with PBS/0.05% TWEEN-20. TMB substrate was added and reacted for 20 min at 37° C. A stop solution (2 N aqueous H2SO4) was added. The absorbance was read at 450 nm using a micro-plate spectrophotometer.).
Programmed cell death 1 ligand 1, sequence (Q9NZQ7 whole entry): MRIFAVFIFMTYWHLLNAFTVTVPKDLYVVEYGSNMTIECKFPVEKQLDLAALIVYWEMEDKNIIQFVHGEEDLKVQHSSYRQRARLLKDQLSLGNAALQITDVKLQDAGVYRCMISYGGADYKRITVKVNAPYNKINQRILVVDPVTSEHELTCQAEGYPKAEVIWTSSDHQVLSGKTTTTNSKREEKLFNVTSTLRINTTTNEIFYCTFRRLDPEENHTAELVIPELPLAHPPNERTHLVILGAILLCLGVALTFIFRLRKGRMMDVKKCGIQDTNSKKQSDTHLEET

SMILES	IC50
COc1cc(-c2cccc(-c3cccc(Nc4nccc5nccnc45)c3C)c2Cl)cc(F)c1CN[C@@H]1CCOC[C@@H]1O	< 10 nM
COc1cc(-c2cccc(-c3cccc(NC(=O)c4cn(C)c(=O)n(C)c4=O)c3Cl)c2Cl)cc(F)c1CN[C@@H]1CCOC[C@@H]1O	< 10 nM
COc1cc(-c2cccc(-c3cccc(NC(=O)c4cn(C)c(=O)n(C)c4=O)c3C)c2C)cc(F)c1CN	< 10 nM
COc1cc(-c2cccc(-c3cccc(NC(=O)c4cnc(C(N)=O)cn4)c3C)c2C)cc(F)c1CN	< 10 nM
COc1cc(-c2cccc(-c3cccc(NC(=O)c4cn(C)c(=O)n(C)c4=O)c3Cl)c2Cl)cc(F)c1CN[C@@H]1CNC(=O)C1	< 10 nM
COc1cc(-c2cccc(-c3cccc(NC(=O)c4cn(C)c(=O)n(C)c4=O)c3C)c2C)cc(F)c1CN(C)CCO	< 10 nM
COc1cc(-c2cccc(-c3cccc(NC(=O)c4ccc(C(N)=O)cn4)c3C)c2C)cc(F)c1CN	< 10 nM
COc1cc(-c2cccc(-c3cccc(NC(=O)c4cncn(C)c4=O)c3C)c2Cl)cc(F)c1CN[C@@H]1CNC(=O)C1	< 10 nM
COc1cc(-c2cccc(-c3cccc(NC(=O)c4ccc(OCC(=O)O)cn4)c3C)c2C)cc(F)c1CN	< 10 nM
COc1cc(-c2cccc(-c3cccc(NC(=O)c4cn(C)c(=O)n(C)c4=O)c3F)c2Cl)cc(F)c1CNCC1CCC(=O)N1 (stereo not given)	< 10 nM
